Values quoted from earlier work, collected in patent US20110268797A1, “MULTICOATED ALISKIREN FORMULATIONS” (Sanovel IIac Sanayi Ve Ticaret Anonim Sirketi, priority 2010, published 2011).
Like-named read-outs stand apart in the source and are kept apart here.

solubility (in n-octanol): freely soluble | solubility (in phosphate buffer): freely soluble | solubility (in water): freely soluble
Structure (SMILES): COCCCOc1cc(C[C@@H](C[C@H](N)[C@@H](O)C[C@H](C(=O)NCC(C)(C)C(N)=O)C(C)C)C(C)C)ccc1OC [Aliskiren hemifumarate]
